In article PMC7503225, “Repositioning Dequalinium as Potent Muscarinic Allosteric Ligand by Combining Virtual Screening Campaigns and Experimental Binding Assays” (International Journal of Molecular Sciences, 2020):

Tests used:
[1] = target: T1, [3H]-NMS-occupied muscarinic hM2 subtype (Homo sapiens, UniProt P08172); assay: One point kinetic (off-rate) assay of [3H]-NMS dissociation; type: binding
T1 construct: expressed in transfected cells; host or cells: CHO cells, stably transfected; membrane fractions
T1 sequence (P08172 1-466): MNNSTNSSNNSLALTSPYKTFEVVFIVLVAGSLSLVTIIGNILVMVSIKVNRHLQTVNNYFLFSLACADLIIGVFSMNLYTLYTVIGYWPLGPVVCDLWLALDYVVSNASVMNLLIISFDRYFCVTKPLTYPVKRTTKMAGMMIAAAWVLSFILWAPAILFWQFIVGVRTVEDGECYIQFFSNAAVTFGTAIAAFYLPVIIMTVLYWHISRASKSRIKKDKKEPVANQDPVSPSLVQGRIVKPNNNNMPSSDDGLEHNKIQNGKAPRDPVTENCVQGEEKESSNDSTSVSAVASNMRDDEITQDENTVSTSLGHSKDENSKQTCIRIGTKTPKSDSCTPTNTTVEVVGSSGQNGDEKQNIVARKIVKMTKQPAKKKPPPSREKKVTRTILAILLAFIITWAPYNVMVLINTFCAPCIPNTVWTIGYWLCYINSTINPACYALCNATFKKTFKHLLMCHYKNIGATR
Protocol: (§1) All tested compounds were purchased from Merck KGaA (Darmstadt, Germany). The radioligand binding experiments were performed with membranes from Chinese Hamster Ovary (CHO) cells stably transfected with the five cloned human muscarinic receptor subtypes (hM1-5). Membrane fractions were prepared according to the protocol, which have been previously described; membranes were stored at −80 °C until use. Nonspecific binding was defined by the radioactivity bound in the presence of 10 µM atropine.
Off-rate assays were performed as described elsewhere to estimate the affinity of the ligands for the [^3H]-NMS-occupied receptor (log Kocc). Briefly, a high concentration of membranes (about 0.1 mg/mL) was incubated with a high concentration of [^3H]-NMS (2 nM) for 60 min at room temperature (mix membrane). Next, 100 µL aliquots were distributed into polypropylene tubes that were empty or in a final volume of 1 mL binding buffer with 1 µM atropine alone and in the presence of a range of concentrations of tested compound (1 nM–0.1 mM).
The effect on the radioligand dissociation of each tested ligand was determined at 0 min and at one time point, which was chosen to be ca 2.5 dissociation half-lives of [^3H]-NMS alone from each subtype receptors. Later (80 min for hM1, 20 min for hM2 and 70 min for hM5), the samples were filtered and counted as previously reported. Non specific binding was measured as previously reported.
(§2) All the results are expressed as means ± SEM obtained from 3-4 independent experiments each one performed in duplicate.

[2] = target: T2, hM3 muscarinic receptor (Homo sapiens, UniProt P20309); assay: Equilibrium inhibition binding with [3H]-NMS, CHO cell membranes; settings: [3H]-NMS 0.2 nM, mean ± SEM of 3-4 experiments, read-out: pKi hM3 (converted)
T2 construct: expressed in transfected cells; host or cells: CHO cells, stably transfected; membrane fractions
T2 sequence (P20309 whole entry): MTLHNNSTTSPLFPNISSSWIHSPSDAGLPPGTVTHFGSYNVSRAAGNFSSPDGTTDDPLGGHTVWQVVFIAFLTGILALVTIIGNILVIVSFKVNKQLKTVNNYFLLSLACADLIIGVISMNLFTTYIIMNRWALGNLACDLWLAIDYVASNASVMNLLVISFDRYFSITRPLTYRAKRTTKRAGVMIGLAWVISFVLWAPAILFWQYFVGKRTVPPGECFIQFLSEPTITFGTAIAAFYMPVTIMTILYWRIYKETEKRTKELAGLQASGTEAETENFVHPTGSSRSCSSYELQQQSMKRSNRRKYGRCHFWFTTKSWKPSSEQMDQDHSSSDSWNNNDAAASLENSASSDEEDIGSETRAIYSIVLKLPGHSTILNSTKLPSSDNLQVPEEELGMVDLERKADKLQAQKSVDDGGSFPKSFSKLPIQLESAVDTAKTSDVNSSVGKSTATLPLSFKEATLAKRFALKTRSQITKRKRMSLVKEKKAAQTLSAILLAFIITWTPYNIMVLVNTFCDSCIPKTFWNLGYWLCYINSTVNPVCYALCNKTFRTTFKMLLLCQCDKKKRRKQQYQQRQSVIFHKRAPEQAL
Protocol: as §1
(§3) Aliquots of membranes (25–70 µg/mL) were added and incubated for 2 h at room temperature, filtered through UniFilter GF/B plates (PerkinElmer Life and Analytical Science, Monza, Italy) using a FilterMate cell harvester (PerkinElmer Life and Analytical Science, Monza, Italy). The filters were washed several times with ice-cold MilliQ water. Then, the plates were counted in a β-counter (TopCount NXT microplate scintillation counter, PerkinElmer Life and Analytical Science, Monza, Italy).
(§4) Data points from radioligand inhibition binding curve were fitted to models using nonlinear regression equation to determine inhibitor potency (IC50) estimates, which were then converted to Ki values as appropriate.
as §2

[3] = target: T3, hM5 muscarinic receptor (Homo sapiens, UniProt P08912); assay: as above; settings: [3H]-NMS 0.2 nM, CHO membranes, mean ± SEM of 3-4 experiments; read-out: pKi hM5 (converted)
T3 construct: expressed in transfected cells; host or cells: CHO cells, stably transfected; membrane fractions
T3 sequence (P08912 1-532): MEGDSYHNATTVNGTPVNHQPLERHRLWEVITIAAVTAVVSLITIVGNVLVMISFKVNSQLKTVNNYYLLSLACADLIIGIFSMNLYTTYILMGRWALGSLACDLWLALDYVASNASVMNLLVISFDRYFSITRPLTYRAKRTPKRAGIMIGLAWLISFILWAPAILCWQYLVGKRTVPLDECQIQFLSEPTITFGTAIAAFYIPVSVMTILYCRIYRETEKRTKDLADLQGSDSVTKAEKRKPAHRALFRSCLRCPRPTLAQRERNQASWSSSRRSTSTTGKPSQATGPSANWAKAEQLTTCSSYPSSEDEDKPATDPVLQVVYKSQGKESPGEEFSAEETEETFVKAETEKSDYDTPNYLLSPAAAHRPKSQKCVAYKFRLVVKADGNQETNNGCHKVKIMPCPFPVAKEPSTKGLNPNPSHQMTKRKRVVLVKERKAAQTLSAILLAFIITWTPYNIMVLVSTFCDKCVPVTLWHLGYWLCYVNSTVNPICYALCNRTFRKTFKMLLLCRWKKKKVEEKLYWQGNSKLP
Protocol: as §1, §3, §4, §2

[4] = target: T4, hM2 muscarinic receptor (Homo sapiens, UniProt P08172); assay: as above; settings: [3H]-NMS 0.2 nM, mean ± SEM of 3-4 experiments, read-out: pKi hM2 (converted)
T4 construct: expressed in transfected cells; host or cells: CHO cells, stably transfected; membrane fractions
T4 sequence (P08172 1-466): T1 sequence (P08172 1-466)
Protocol: as §1, §3, §4, §2

[5] = target: T5, hM1 muscarinic receptor (Homo sapiens, UniProt P11229); assay: as above; settings: [3H]-NMS 0.2 nM, mean ± SEM of 3-4 experiments, read-out: pKi hM1 (converted)
T5 construct: expressed in transfected cells; host or cells: CHO cells, stably transfected; membrane fractions
T5 sequence (P11229 1-460): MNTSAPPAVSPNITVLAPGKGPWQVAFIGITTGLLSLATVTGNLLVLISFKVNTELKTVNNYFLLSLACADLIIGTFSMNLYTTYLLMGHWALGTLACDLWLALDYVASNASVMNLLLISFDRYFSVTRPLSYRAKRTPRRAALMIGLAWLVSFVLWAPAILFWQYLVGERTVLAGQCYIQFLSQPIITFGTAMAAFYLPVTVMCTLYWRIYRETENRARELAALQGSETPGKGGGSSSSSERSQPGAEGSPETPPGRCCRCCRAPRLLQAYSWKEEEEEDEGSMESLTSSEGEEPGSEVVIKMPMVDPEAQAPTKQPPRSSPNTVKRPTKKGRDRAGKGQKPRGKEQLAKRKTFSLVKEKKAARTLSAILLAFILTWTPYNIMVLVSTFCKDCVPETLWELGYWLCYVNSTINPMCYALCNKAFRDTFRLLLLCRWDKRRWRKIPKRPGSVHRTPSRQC
Protocol: as §1, §3, §4, §2

In the case of `Cc1cc(N)c2ccccc2[n+]1CCCCCCCCCC[n+]1c(C)cc(N)c2ccccc21` [dequalinium], the “selectivity ratio hM2/hM1” value ([1]; from log Kocc values) is reported as 10.7, the “selectivity ratio hM2/hM5” value ([1]; from log Kocc values) is reported as 174 and the Kd ([1]; read-out: Log Kocc hM2 (converted)) is reported as 19.1 nM. The Ki [2] was 170 nM, the Ki [3] was 158 nM and the Ki [4] was 661 nM. For the same molecule, the Ki [5] was 41.7 nM.
